Measured values: article PMC7853623, “Dose- and time-dependent tolerability and efficacy of organo-osmium complex FY26 and its tissue pharmacokinetics in hepatocarcinoma-bearing mice” (Metallomics: Integrated Biometal Science, 2020)

How the values were obtained:
[1] = system: Hepa1–6-Per2-luc hepatocarcinoma tumours; test: Tumour volume after a single ip dose (Experiment 5); type: in vivo, C57Bl/6 mice; details: single ip dose 5, 10 or 20 mg/kg (FY26⋅Cl)
Protocol: (§1) The mice, aged 8–10 weeks, were anesthetized under isoflurane and Hepa1–6-Per2-luc cells were injected subcutaneously in both postero-lateral flanks of each mouse. Mice were then inspected and weighed daily until experiment completion. Tumour sites were inspected daily until tumours became palpable and amenable to daily measurements of perpendicular diameters using callipers. Measurements were always taken at the same circadian time.
(§2) Mean daily tumour weight per mouse was calculated as the average volume of the right and left flank tumours according to (L × W^2)/2, where L is the larger and W the smaller perpendicular diameter, and 1 cm^3 corresponds to 1 g. Mice with an estimated tumour weight exceeding 10% of their body weight or those in poor general condition or loosing >15% of their starting body weight were euthanized, in compliance with our Home Office Project Licence specifications approved by the Animals in Science Committee and Animal Welfare and Ethical Review Body.
Experiment 5 determined FY26⋅Cl uptake in mouse tumour and liver. Hepa1–6-bearing mice were randomly assigned to either treatment or control groups. They received a single ip injection of 5, 10, or 20 mg/kg of FY26⋅Cl or 0.1 M PBS (vehicle) at ZT6 (Table 1). The mice from pre-set subgroups were culled at 6, 24, or 48 h after injection. […]

[2] = Body weight change after a single ip dose (Experiment 5); type: in vivo, C57Bl/6 mice; details: single ip dose 5, 10 or 20 mg/kg (FY26⋅Cl), 24 and 48 h, all mice
Protocol: Experiment 5 determined FY26⋅Cl uptake in mouse tumour and liver. Hepa1–6-bearing mice were randomly assigned to either treatment or control groups. They received a single ip injection of 5, 10, or 20 mg/kg of FY26⋅Cl or 0.1 M PBS (vehicle) at ZT6 (Table 1). The mice from pre-set subgroups were culled at 6, 24, or 48 h after injection. The subcutaneous tumours in both flanks, as well as liver, spleen, one kidney, an ileum, and a colon segment and brain were sampled and stored at −80°C.
(§3) Body weight data were expressed as % body weight measured on the first treatment day. Tumour weights for individually treated mice were expressed as % of the median control values, in order to determine % inhibition. Mean and standard error or median and interquartiles were computed for the different treatment groups and experimental conditions, i.e. drug timing and day of assessment. Groups were compared using parametric or non-parametric ANOVAs, respectively.

[3] = design: method as in ref 22 = [22]; 22. Abraham K. , In vitro and in vivo chronopharmacology of a new generation of an organometallic anticancer drug complex . Ph.D. thesis , University of Warwick , Coventry, UK , 2018 .; details: mice ref 22; cited from earlier work
[4] = Tolerability (survival, body weight) in Hepa1–6-bearing C57Bl/6 mice (Experiments 3 and 4); type: in vivo; details: Experiment 4 (FY26⋅Cl)
Protocol: (§4) Male CD1-Foxn1^nu or C57Bl/6 (B6) mice aged 5–10 weeks (Janvier, Le Genest St Isle, France) were housed in groups of three to four mice per cage in temperature-controlled (23 ± 1°C), ventilated (100 ± 10 l/min), and light-tight chronobiological animal facilities (Eurobioconcept, Bonneuil s/Marne, France). They were synchronized with an alternation of 12 h of light (L) and 12 h of darkness (D) (LD12:12), with light starting at 07:00, and had ad libitum access to food and water throughout all the experiments. In line with convention, onset of light and that of darkness are referred to as Zeitgeber time 0 (ZT0) and ZT12, respectively. After one or more weeks on this regimen and on the day prior to tumour inoculation, both flanks of each B6 mouse were shaved using clippers.
as §1, §2
Experiment 3 aimed at assessing the efficacy and tolerability of the more soluble formulation of FY26⋅Cl in Hepa1–6-bearing C57Bl/6 mice. The mice were randomized to receive vehicle or FY26⋅Cl, at a cumulative dose of 60 mg/kg. Treated mice received ip injections of 20 mg/kg of FY26⋅Cl at ZT6 12, 14, and 17 days after tumour inoculation. Control mice received ip vehicle on the same days.
Experiment 4 aimed at confirming efficacy and optimizing timing and scheduling of the same cumulative dose of 60 mg/kg of FY26⋅Cl. Mice were randomized to receive either vehicle or FY26⋅Cl as four injections of 15 mg/kg at ZT6 or ZT18 on days 11, 14, 17, and 21.
For Experiments 1 and 2, FY26⋅PF6 was diluted in the vehicle, composed of 1% Tween 80 (Sigma-Aldrich, Gillingham, UK), 5% DMSO (Corning, New York, USA) and 94% of 0.9% saline (Prep room, Life Sciences, University of Warwick) under laminar flow. FY26⋅PF6 concentration was confirmed with ICP-MS. For Experiments 3–5, using FY26⋅Cl, a stock solution of 50 mg/ml FY26⋅Cl was prepared in 0.9% saline on the day of injection and diluted as required; the vehicle consisted of 0.9% saline.
as §3

[5] = design: method as in PMID 20977192; details: 24 h incubation at 37°C, pH 7.4 ref 12; cited from earlier work
[6] = Comparative maximum aqueous solubility study (ICP-OES); type: physicochemical; details: doubly deionized water, 24 h shaking, ambient 18–20°C, mean ± SD of N = 3
Protocol: One to five milligrams of FY26⋅PF6 or FY26⋅I, and 180 mg of FY26⋅Cl were dispensed into Falcon tubes in triplicates, then 1 ml of doubly deionized water (DDIW) was added. The Falcon tubes were placed on a Vibrax VXB basic shaker (Sigma-Aldrich, Dorset, UK) for 24 h at a speed of […] (ambient temperature 18–20°C), and were checked at intervals (further solids were added if total saturation appeared to occur). The samples were filtered through syringe filters (PTFE, 0.45 µm, 4 mm) to remove any undissolved solids. The concentrations of Os in the solutions were measured using inductively coupled plasma-optical emission spectroscopy (ICP-OES) (Agilent, Stockport, UK).
Analyses of FY26 solutions were carried out on a Perkin-Elmer (optical emission spectrometer) Optima 5300 DV instrument. All samples and standards were prepared fresh on the day in DDIW with distilled HNO3 (3.2%), thiourea (5 mM), and ascorbic acid (0.1 g/l). The osmium standard was diluted to the following concentrations for the calibration curve: 0, 25, 50, 100, 200, 400, 600, 800, and 1000 ppb. The samples were diluted by serial dilutions of typically 1 in 10 until their concentrations fitted within the calibration range and % total dissolved solids were below 0.2%. Samples were prepared in triplicates and the Os optical emissions at 228.226 and 225.585 nm were detected and integrated.

[7] = system: Hepa1–6-Per2-luc hepatocarcinoma tumours; test: Antitumour efficacy in Hepa1–6-bearing nude mice (Experiments 1 and 2); type: in vivo, CD1-Foxn1^nu mice
Protocol: as §4
Mouse hepatocarcinoma (Hepa1–6, ATCC® CRL-1830™) was kindly provided by S. Dulong (INSERM U935, Villejuif, France), following their stable transfection with the Per2-luc [pLV7-Bsd-P(Per2)-dLuc] reporter constructs within the C5SYS ERASYSBIO+ project (FP7). Mouse Hepa1–6-Per2-luc cells were cultured in 15-cm Petri dishes until they reached 80% confluency. On the day of tumour inoculation, the cells were trypsinized and resuspended at a concentration of 10^6 cells/100 µl in PBS solution alone (Experiments 1 and 2) or with 1:1 MatriGel™ (Corning, Flintshire, UK) (Experiments 3–5) and kept on ice until injected.
as §1, §2
Experiment 1 aimed at the determination of a therapeutic dose of the less soluble FY26⋅PF6 formulation. Hepa1–6-bearing nude mice were randomly assigned to be injected intraperitoneally (ip) with vehicle (controls), or 40, 60, or 80 mg/kg/injection of FY26⋅PF6 at ZT6 (in the middle of the light span) every other day for 12 days (Table 1).
Experiment 2 aimed at assessing whether FY26⋅PF6 circadian timing would influence toxicity or efficacy in the nude mouse model. The animals were randomly assigned to receive ip vehicle or FY26⋅PF6 (50 mg/kg/injection) at ZT6 or at ZT18 (four controls and six treated mice per ZT) every other day for 11 days (six injections; cumulative dose, 300 mg/kg). […]
(§5) Body weight data were expressed as % body weight measured on the first treatment day. Tumour weights for individually treated mice were expressed as % of the median control values, in order to determine % inhibition. […]

[8] = system: HCT-116 human colon cancer xenografts; design: method as in ref 13 = [13]; 13. Shnyder S. D. , Fu Y. , Habtemariam A. , van Rijt S. H. , Cooper P. A. , Loadman P. M. , Sadler P. J. , Anti-colorectal cancer activity of an organometallic osmium arene azopyridine complex , Med.; details: HCT-116 xenografts in mice ref 13; cited from earlier work
[9] = system: A2780 ovarian cancer cells over MRC-5 fibroblasts; design: method as in PMID 26397305; details: applied synergistically with L-buthionine sulfoximine (L-BSO) ref 19; cited from earlier work
[10] = Tolerability in Hepa1–6-bearing nude mice (Experiments 1 and 2); type: in vivo, CD1-Foxn1^nu mice
Protocol: as §4, §1, §2
Experiment 1 aimed at the determination of a therapeutic dose of the less soluble FY26⋅PF6 formulation. […]
as §5

Hepa1–6 cells = system: Hepa1–6 cells; design: method as in ref 21, 22 = [21]; 21. Abraham K. , Dallmann R. , Ballesta A. , Romero-Canelon I. , Sadler P. J. , Lévi F. A. , In v itro circadian synchronisation of mouse hepatocarcinoma cells with 24 h temperature cycles uncovers in || [22]; 22. Abraham K. , In vitro and in vivo chronopharmacology of a new generation of an organometallic anticancer drug complex . Ph.D. thesis , University of Warwick , Coventry, UK , 2018 .; details: Hepa1–6 cells synchronized with a 24-h periodic temperature cycle ref 21, 22; cited from earlier work
A2780 cells = system: A2780 cells; design: method as in PMID 26162681; details: previously reported ref 18; cited from earlier work
[11] = system: 809 cancer cell line screen; design: method as in PMID 26162681; details: on average, 809 cancer cell lines ref 18; cited from earlier work
[12] = design: method as in PMID 9144445; details: cisplatin in BSO-treated mice ref 36; cited from earlier work

For `CN(C)c1ccc(N=Nc2ccccn2)cc1.Cc1ccc(C(C)C)cc1.[I-].[Os+2]` [FY26, [Os^II(ɳ^6-p-cym)(PhAzPy-NMe2)I]^+], the “changes in tumour volumes” value [1] is given as “No changes”, the body weight changes [2] is given as under 5% and the best-tolerated dosing time [3] is given as “near the middle of the light span”. For the same compound, the “body-weight loss according to dosing time” value ([4]; 15 mg/kg ip × 4, ZT18 versus ZT6) was “clearly worse at ZT18”, the survival rate ([4]; 15 mg/kg ip × 4 at ZT6) was 60% and the survival rate ([4]; 15 mg/kg ip × 4 at ZT18) was 30%. For the same compound, the “hydrolysis in aqueous solution” value [5] was “does not readily hydrolyse”.

For `CN(C)c1ccc(N=Nc2ccccn2)cc1.Cc1ccc(C(C)C)cc1.[I-].[I-].[Os+2]` [FY26⋅I], the maximum aqueous solubility [6] was 1.29 (±0.01) mM.

In the case of `CN(C)c1ccc(N=Nc2ccccn2)cc1.Cc1ccc(C(C)C)cc1.F[P-](F)(F)(F)(F)F.[I-].[Os+2]` [FY26⋅PF6, [Os^II(ɳ^6-p-cym)(PhAzPy-NMe2)I]PF6], the “tumour inhibition efficacy ranking” value ([7]; Experiment 1, 40 mg/kg/injection ip at ZT6 every other day) was “intermediate”, the “tumour inhibition efficacy ranking” value ([7]; Experiment 1, 60 mg/kg/injection ip at ZT6 every other day) was “least” and the “tumour inhibition efficacy ranking” value ([7]; Experiment 1, 80 mg/kg/injection ip at ZT6 every other day) was “highest”. For the same compound, the “efficacy according to dosing time” value ([7]; Experiment 2, 50 mg/kg/injection ip, ZT6 versus ZT18) was “slightly better efficacy at ZT6”, the tumour growth ([7]; Experiment 2, 50 mg/kg/injection ip, after the sixth dose) was “slowed down transiently” and the “effect on xenograft growth” value [8] was “capable of delaying the growth”. The “selectivity towards A2780 over MRC-5 fibroblasts” value [9] was “up to 64 times”, the “toxicity of the higher dose” value ([10]; Experiment 1, 80 mg/kg/injection, all mice euthanized after up to five injections (cumulative 400 mg/kg)) was “clearly too toxic” and the “body weight loss dose–response” value ([10]; Experiment 1, 40, 60 or 80 mg/kg/injection ip at ZT6) was “linear dose–response relation”. The “body-weight loss at ZT6 as compared to ZT18” value ([10]; Experiment 2, 50 mg/kg/injection ip) was “less pronounced”, the “variation of IC50 according to timing of in vitro drug exposure” value (Hepa1–6 cells) was 40% and the ROS induction (A2780 cells) was “did induce an increase in ROS”. The induction of apoptosis (A2780 cells) was “did not induce apoptosis”, the “activity relative to cisplatin” value [11] was 49 times and the maximum aqueous solubility [6] was 0.0201 (±0.0007) mM.

In the case of `N.N.[Cl][Pt][Cl]` [cisplatin], the “reduction in average survival rate” value [12] is listed as 5.7 fold.
